Results on twelve molecules are retold here after ChEMBL document CHEMBL1156063, “Design of new antifungal agents: synthesis and evaluation of 1-[(1H-indol-5-ylmethyl)amino]-2-phenyl-3-(1H-1,2,4-triazol-1-yl)propan-2-ols” (2009).

Holding throughout (assay type): functional
Assay [1] has as its system Candida albicans. The assay can be described thus: Antifungal activity against Candida albicans CA98001.
Assay [2] has as its system Aspergillus fumigatus. The assay can be described thus: Antifungal activity against Aspergillus fumigatus AF98003.
Assay [3] relates to Candida parapsilosis. The assay can be described thus: Antifungal activity against fluconazole-resistant Candida parapsilosis Rolland. The note with it: Lodderomyces parapsilosis.
The subject of assay [4] is Candida albicans. The assay can be described thus: Antifungal activity against fluconazole-resistant Candida albicans CA424.
In assay [5] the test system is Candida albicans. The assay can be described thus: Antifungal activity against fluconazole-resistant Candida albicans CA284.
In assay [6] the test system is Pichia kudriavzevii. The assay can be described thus: Antifungal activity against fluconazole-resistant Candida krusei CK506.
Assay [7] has as its system Pichia kudriavzevii. The assay can be described thus: Antifungal activity against fluconazole low-sensitive Candida krusei CK8.
In assay [8] the test system is Nakaseomyces glabratus. The assay can be described thus: Antifungal activity against fluconazole-resistant Candida glabrata CG468.
Assay [9] deals with Candida parapsilosis. The assay can be described thus: Antifungal activity against fluconazole-resistant Candida parapsilosis Houdeau. The note with it: Lodderomyces parapsilosis.

In brackets after ≈: the same amount, converted by molar mass. Activity calls are given as the source filed them. The rule behind the calls is not given here.

Usually MIC stands for the lowest concentration found to suppress growth. `CN(Cc1ccc2c(ccn2C(=O)OC(C)(C)C)c1)CC(O)(Cn1cncn1)c1ccc(F)cc1F` (stereo unspecified) registered an MIC in assay [1] of 0.06 µg/mL (≈ 0.121 µM). In [2], the MIC entry is “inactive”.

In turn, `OC(CNCc1ccc2[nH]ccc2c1)(Cn1cncn1)c1ccc(F)cc1F` (stereo unspecified) showed a minimal inhibitory concentration (MIC) in assay [1] of 0.034 µg/mL (≈ 0.0887 µM). Besides, the MIC entry in [2] was “inactive”.

In assay [1], `CN(Cc1ccc2c(ccn2C(=O)c2ccccc2)c1)CC(O)(Cn1cncn1)c1ccc(F)cc1F` (stereo unspecified) showed a minimal inhibitory concentration (MIC) of 0.032 µg/mL (≈ 0.0638 µM). Besides, in assay [2], the MIC result was “inactive”.

As to `OC(Cn1cncn1)(Cn1cncn1)c1ccc(F)cc1F` [FLUCONAZOLE], the MIC was greater than 64 µg/mL in assay [3]; 0.19 µg/mL (≈ 0.62 µM) in [1]; greater than 64 µg/mL in [4]; greater than 64 µg/mL in assay [5]; greater than 64 µg/mL in assay [6]; 19 µg/mL (≈ 62 µM) in [7]. The MIC in assay [8] and in [9] was greater than 64 µg/mL in each case.

For the molecule `O=C(c1ccccc1)n1ccc2cc(CNCC(O)(Cn3cncn3)c3ccc(Cl)cc3Cl)ccc21` (stereo unspecified), inhibition of growth in [1] (MIC) required 0.031 µg/mL (≈ 0.0596 µM). For the same molecule, the MIC result in [2] is “inactive”.

Consider `CN(Cc1ccc2[nH]cc(C(=O)C(F)(F)F)c2c1)CC(O)(Cn1cncn1)c1ccc(F)cc1F` (stereo unspecified), for which the MIC in assay [1] was 0.064 µg/mL (≈ 0.13 µM). The MIC result in [2] is “inactive”.

In [1], `OC(CNCc1ccc2[nH]ccc2c1)(Cn1cncn1)c1ccc(Cl)cc1Cl` (stereo unspecified) gave a minimum inhibitory concentration (MIC) of 0.031 µg/mL (≈ 0.0745 µM). In addition, the MIC entry in [2] is “inactive”.

As to `O=C(c1ccccc1)n1ccc2cc(CNCC(O)(Cn3cncn3)c3ccc(F)cc3F)ccc21` (stereo unspecified), in assay [1], the MIC worked out at 0.027 µg/mL (≈ 0.0554 µM). Also, in assay [2], the MIC entry was “inactive”.

Take `CC(C)(C)OC(=O)n1ccc2cc(CNCC(O)(Cn3cncn3)c3ccc(F)cc3F)ccc21` (stereo unspecified): the MIC was found to be 19 µg/mL (≈ 39.3 µM) in [3]; 0.003 µg/mL (≈ 0.0062 µM) in assay [1]; 33 µg/mL (≈ 68.2 µM) in assay [4]; 32 µg/mL (≈ 66.2 µM) in assay [5]; 27 µg/mL (≈ 55.8 µM) in assay [6]; 3.8 µg/mL (≈ 7.86 µM) in [7]. The MIC in assay [8] amounted to 12 µg/mL (≈ 24.8 µM); in assay [9], 24 µg/mL (≈ 49.6 µM). In assay [2], the MIC entry is “inactive”.

Regarding `CC(C)(C)OC(=O)n1ccc2cc(CNCC(O)(Cn3cncn3)c3ccc(Cl)cc3Cl)ccc21` (stereo unspecified), in assay [1], it took 0.039 µg/mL (≈ 0.0755 µM) to inhibit growth (MIC). In addition, in assay [2], the MIC entry is “inactive”.

Consider `CCC(C)n1ncn(-c2ccc(N3CCN(c4ccc(OCC5COC(Cn6cncn6)(c6ccc(Cl)cc6Cl)O5)cc4)CC3)cc2)c1=O` (stereo unspecified) [ITRACONAZOLE], for which the MIC in assay [2] amounted to 0.42 µg/mL (≈ 0.595 µM).

In [1], `CN(Cc1ccc2[nH]ccc2c1)CC(O)(Cn1cncn1)c1ccc(F)cc1F` (stereo unspecified) registered an MIC of 0.035 µg/mL (≈ 0.0881 µM). In [2], the MIC result was “inactive”.
